Where “and” joins values, the source holds several entries; their conditions need not be identical. Identical values can stand only once. Inconclusive results and toxic doses are left out.
Test system: CD2F1 mice, L1210 leukemia ip, survival T/C
Assay: NCI In Vivo Anticancer Drug Screen. Data for tumor model L1210 Leukemia (intraperitoneal) in CD2F1 (CDF1) mice
Conditions: higher = longer survival
Procedure, shortened: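 In this screen, transplantable tumors were grown in mice given either the compound or its vehicle. Results were expressed as the treated measurement relative to the control measurement.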

[1] = endpoint: mean survival time, dose: 100.0 mg/kg/injection, schedule: Q01DX009 (ip), vehicle: saline with Tween-80
[2] = endpoint: mean survival time, dose: 100.0 mg/kg/injection, schedule: Q04DX003 (ip), vehicle: saline with Tween-80
[3] = endpoint: mean survival time, dose: 200.0 mg/kg/injection, schedule: Q01DX009 (ip), vehicle: saline with Tween-80
[4] = endpoint: mean survival time, dose: 400.0 mg/kg/injection, schedule: Q04DX003 (ip), vehicle: saline with Tween-80
[5] = endpoint: mean survival time, dose: 400.0 mg/kg/injection, schedule: Q01DX009 (ip), vehicle: saline with Tween-80
[6] = endpoint: mean survival time, dose: 50.0 mg/kg/injection, schedule: Q04DX002 (ip), vehicle: saline with Tween-80
[7] = endpoint: mean survival time, dose: 100.0 mg/kg/injection, schedule: Q04DX002 (ip), vehicle: saline with Tween-80
[8] = endpoint: mean survival time, dose: 200.0 mg/kg/injection, schedule: Q04DX002 (ip), vehicle: saline with Tween-80
[9] = endpoint: mean survival time, dose: 400.0 mg/kg/injection, schedule: Q04DX002 (ip), vehicle: saline with Tween-80
[10] = endpoint: mean survival time, dose: 50.0 mg/kg/injection, schedule: Q01DX009 (ip), vehicle: saline with Tween-80
[11] = endpoint: mean survival time, dose: 200.0 mg/kg/injection, schedule: Q04DX003 (ip), vehicle: saline with Tween-80

## C1CCC(C2CCCC[N-]2)[N-]C1.CC([NH-])C(=O)O.[Cl][Pt] (stereo unspecified)
endpoint: median survival time, dose: 10.0 mg/kg/injection, schedule: Q04DX003 (ip), vehicle: saline
  T/C: 107 % of control
endpoint: median survival time, dose: 20.0 mg/kg/injection, schedule: Q04DX003 (ip), vehicle: saline
  T/C: 105 % of control
endpoint: median survival time, dose: 40.0 mg/kg/injection, schedule: Q04DX003 (ip), vehicle: saline
  T/C: 110 % of control
endpoint: median survival time, dose: 80.0 mg/kg/injection, schedule: Q04DX003 (ip), vehicle: saline
  T/C: 97 % of control and 104 % of control
endpoint: median survival time, dose: 160.0 mg/kg/injection, schedule: Q04DX003 (ip), vehicle: saline
  T/C: 108 % of control
endpoint: median survival time, dose: 320.0 mg/kg/injection, schedule: Q04DX003 (ip), vehicle: saline
  T/C: 96 % of control

## CC1(C)C(=O)C(Br)=Cc2ccccc21
endpoint: mean survival time, dose: 12.5 mg/kg/injection, schedule: Q01DX009 (ip), vehicle: other
  T/C: 105 % of control
endpoint: mean survival time, dose: 25.0 mg/kg/injection, schedule: Q01DX009 (ip), vehicle: other
  T/C: 100 % of control
endpoint: mean survival time, dose: 50.0 mg/kg/injection, schedule: Q01DX009 (ip), vehicle: other
  T/C: 111 % of control
endpoint: mean survival time, dose: 100.0 mg/kg/injection, schedule: Q01DX009 (ip), vehicle: other
  T/C: 108 % of control
endpoint: mean survival time, dose: 200.0 mg/kg/injection, schedule: Q01DX009 (ip), vehicle: other
  T/C: 105 % of control

## CC(C)COC(=O)c1ccc(NC(=O)Nc2ccccc2Cl)cc1
[1]
  T/C: 93 % of control
[2]
  T/C: 93 % of control
[3]
  T/C: 89 % of control
[4]
  T/C: 101 % of control

## CC(C)NC(=O)N(CCCCBr)N=O
endpoint: median survival time, dose: 12.0 mg/kg/injection, schedule: Q01DX009 (ip), vehicle: Klucel (hydroxypropylcellulose) (HPC)
  T/C: 108 % of control
endpoint: median survival time, dose: 25.0 mg/kg/injection, schedule: Q01DX009 (ip), vehicle: Klucel (hydroxypropylcellulose) (HPC)
  T/C: 116 % of control
endpoint: median survival time, dose: 50.0 mg/kg/injection, schedule: Q01DX009 (ip), vehicle: Klucel (hydroxypropylcellulose) (HPC)
  T/C: 124 % of control
endpoint: median survival time, dose: 100.0 mg/kg/injection, schedule: Q01DX009 (ip), vehicle: Klucel (hydroxypropylcellulose) (HPC)
  T/C: 160 % of control
endpoint: median survival time, dose: 200.0 mg/kg/injection, schedule: Q01DX009 (ip), vehicle: Klucel (hydroxypropylcellulose) (HPC)
  T/C: 112 % of control

## CN(C)/C=N/NC(=O)C(O)c1ccccc1 (stereo unspecified)
[1]
  T/C: 102 % of control
[3]
  T/C: 102 % of control
[5]
  T/C: 100 % of control

## CC(=O)OC(Cc1ccc(Cl)cc1)c1ccc(Cl)cc1 (stereo unspecified)
[6]
  T/C: 96 % of control
[7]
  T/C: 96 % of control
[8]
  T/C: 90 % of control
[9]
  T/C: 90 % of control

## Cc1ccc(NC(=O)Oc2ccccc2F)cc1C
[10]
  T/C: 100 % of control
[1]
  T/C: 87 % of control
[3]
  T/C: 104 % of control

## CC(C)CC(C)OP(=S)(S)OC(C)CC(C)C (stereo unspecified)
endpoint: mean survival time, dose: 12.5 mg/kg/injection, schedule: Q04DX002 (ip), vehicle: saline
  T/C: 95 % of control
endpoint: mean survival time, dose: 25.0 mg/kg/injection, schedule: Q04DX002 (ip), vehicle: saline
  T/C: 95 % of control
endpoint: mean survival time, dose: 50.0 mg/kg/injection, schedule: Q04DX002 (ip), vehicle: saline
  T/C: 109 % of control

## NC(=O)N/N=C1\CC(S(=O)(=O)O)NC(=O)N1 (stereo unspecified)
[6]
  T/C: 98 % of control
[7]
  T/C: 95 % of control
[8]
  T/C: 95 % of control

## CCOC(=O)c1cnn(CCO)c1N
endpoint: mean survival time, dose: 50.0 mg/kg/injection, schedule: Q04DX003 (ip), vehicle: water
  T/C: 100 % of control
endpoint: mean survival time, dose: 100.0 mg/kg/injection, schedule: Q04DX003 (ip), vehicle: water
  T/C: 97 % of control
endpoint: mean survival time, dose: 200.0 mg/kg/injection, schedule: Q04DX003 (ip), vehicle: water
  T/C: 101 % of control
endpoint: mean survival time, dose: 400.0 mg/kg/injection, schedule: Q04DX003 (ip), vehicle: water
  T/C: 103 % of control and 107 % of control
endpoint: mean survival time, dose: 600.0 mg/kg/injection, schedule: Q04DX003 (ip), vehicle: water
  T/C: 101 % of control
endpoint: mean survival time, dose: 800.0 mg/kg/injection, schedule: Q04DX003 (ip), vehicle: water
  T/C: 105 % of control

## CCC12C(=O)C(CC)(C3=C1c1cccc4cccc3c14)C1C(=O)OC(=O)C12 (stereo unspecified)
[2]
  T/C: 97 % of control
[11]
  T/C: 97 % of control
[4]
  T/C: 97 % of control

## Nc1ccc2cc(Cl)ccc2c1
[10]
  T/C: 103 % of control
[1]
  T/C: 105 % of control
[2]
  T/C: 95 % of control
[11]
  T/C: 95 % of control

## CCN(CC)CCn1[nH]c2c3ccc(=O)cc3sc3c(NCCN)ccc1c32
endpoint: median survival time, dose: 1.5 mg/kg/injection, schedule: Q01DX009 (ip), vehicle: water
  T/C: 168 % of control
endpoint: median survival time, dose: 1.56 mg/kg/injection, schedule: Q01DX005 (ip), vehicle: water
  T/C: 154 % of control
endpoint: median survival time, dose: 3.0 mg/kg/injection, schedule: Q01DX005 (ip), vehicle: water
  T/C: 183 % of control
endpoint: median survival time, dose: 3.0 mg/kg/injection, schedule: Q01DX009 (ip), vehicle: water
  T/C: 180 % of control
endpoint: median survival time, dose: 3.12 mg/kg/injection, schedule: Q01DX005 (ip), vehicle: water
  T/C: 192 % of control and 244 % of control
endpoint: median survival time, dose: 6.0 mg/kg/injection, schedule: Q01DX005 (ip), vehicle: water
  T/C: 152 % of control
endpoint: median survival time, dose: 6.0 mg/kg/injection, schedule: Q01DX009 (ip), vehicle: water
  T/C: 216 % of control
endpoint: median survival time, dose: 6.25 mg/kg/injection, schedule: Q01DX005 (ip), vehicle: water
  T/C: 186 % of control and 357 % of control
endpoint: median survival time, dose: 12.0 mg/kg/injection, schedule: Q01DX005 (ip), vehicle: water
  T/C: 95 % of control
endpoint: median survival time, dose: 12.0 mg/kg/injection, schedule: Q01DX009 (ip), vehicle: water
  T/C: 216 % of control
endpoint: median survival time, dose: 12.5 mg/kg/injection, schedule: Q01DX005 (ip), vehicle: water
  T/C: 231 % of control and 357 % of control

## Nc1nc2c(ncn2C2OC(COC(=O)Oc3ccccc3)C(O)C2O)c(=O)[nH]1 (stereo unspecified)
endpoint: mean survival time, dose: 50.0 mg/kg/injection, schedule: Q01DX009 (ip), vehicle: Klucel (hydroxypropylcellulose) (HPC)
  T/C: 107 % of control
endpoint: mean survival time, dose: 100.0 mg/kg/injection, schedule: Q01DX009 (ip), vehicle: Klucel (hydroxypropylcellulose) (HPC)
  T/C: 96 % of control
endpoint: mean survival time, dose: 200.0 mg/kg/injection, schedule: Q01DX009 (ip), vehicle: Klucel (hydroxypropylcellulose) (HPC)
  T/C: 92 % of control

## CCCCCCCCCCCOc1ccc(Cl)cc1Cl
[7]
  T/C: 90 % of control
[8]
  T/C: 93 % of control
[9]
  T/C: 86 % of control

## O.O=S(=O)(O)O.[Co+3].[NH2-].[NH2-].[NH2-].[NH2-].[NH2-]
[8]
  T/C: 123 % of control

## CCN=C(N)C(N)=NCC (tested in a mixture with another compound)
endpoint: mean survival time, dose: 25.0 mg/kg/injection, schedule: Q04DX002 (ip), vehicle: saline with Tween-80
  T/C: 98 % of control
[6]
  T/C: 98 % of control
[7]
  T/C: 93 % of control and 98 % of control
[8]
  T/C: 96 % of control and 87 % of control
[9]
  T/C: 93 % of control

## COc1cc(OC)c(NC(=O)N2CCN(C)CC2)cc1Cl
[10]
  T/C: 88 % of control
[1]
  T/C: 94 % of control

## FC(F)(F)S.[Hg]
endpoint: mean survival time, dose: 5.0 mg/kg/injection, schedule: Q04DX003 (ip), vehicle: saline
  T/C: 101 % of control
endpoint: mean survival time, dose: 10.0 mg/kg/injection, schedule: Q04DX003 (ip), vehicle: saline
  T/C: 97 % of control
endpoint: mean survival time, dose: 20.0 mg/kg/injection, schedule: Q04DX003 (ip), vehicle: saline
  T/C: 95 % of control

## CC(=O)OC1CCC2(C)C(CCC3C2CCC2(C)C(c4cccc(=O)o4)CCC32)C1 (stereo unspecified)
endpoint: mean survival time, dose: 100.0 mg/kg/injection, schedule: Q01DX001 (ip), vehicle: saline
  T/C: 101 % of control
endpoint: mean survival time, dose: 200.0 mg/kg/injection, schedule: Q01DX001 (ip), vehicle: saline
  T/C: 97 % of control
endpoint: mean survival time, dose: 400.0 mg/kg/injection, schedule: Q01DX001 (ip), vehicle: saline
  T/C: 95 % of control

## COc1ccc(CC(=O)NC(C)Cc2ccc(OC)c(OC)c2)cc1OC (stereo unspecified)
endpoint: mean survival time, dose: 12.5 mg/kg/injection, schedule: Q01DX009 (ip), vehicle: water
  T/C: 91 % of control
endpoint: mean survival time, dose: 25.0 mg/kg/injection, schedule: Q01DX009 (ip), vehicle: water
  T/C: 89 % of control
endpoint: mean survival time, dose: 50.0 mg/kg/injection, schedule: Q01DX009 (ip), vehicle: water
  T/C: 95 % of control
endpoint: mean survival time, dose: 100.0 mg/kg/injection, schedule: Q01DX009 (ip), vehicle: water
  T/C: 94 % of control
endpoint: mean survival time, dose: 200.0 mg/kg/injection, schedule: Q01DX009 (ip), vehicle: water
  T/C: 91 % of control

## CC(=O)Nc1ncc(C)s1
[1]
  T/C: 102 % of control
[2]
  T/C: 97 % of control
[3]
  T/C: 104 % of control
[11]
  T/C: 101 % of control
[5]
  T/C: 95 % of control
[4]
  T/C: 101 % of control

## CC(C)(Cl)[N+](=O)[O-]
endpoint: mean survival time, dose: 100.0 mg/kg/injection, schedule: Q04DX003 (ip), vehicle: saline
  T/C: 98 % of control
endpoint: mean survival time, dose: 200.0 mg/kg/injection, schedule: Q04DX003 (ip), vehicle: saline
  T/C: 104 % of control
endpoint: mean survival time, dose: 400.0 mg/kg/injection, schedule: Q04DX003 (ip), vehicle: saline
  T/C: 96 % of control

## N=C(N)c1cc(Cl)c(OCc2ccccc2)c(Cl)c1
endpoint: mean survival time, dose: 25.0 mg/kg/injection, schedule: Q04DX003 (ip), vehicle: saline with Tween-80
  T/C: 97 % of control
endpoint: mean survival time, dose: 50.0 mg/kg/injection, schedule: Q04DX003 (ip), vehicle: saline with Tween-80
  T/C: 96 % of control

Source: PubChem BioAssay AID256 (DTP/NCI, 2004)
